Data: patent US3962256A, “2-Aminomethyl benzimidazole derivatives” (Delalande S.A., priority 1973, dated 1976)

Experiments:
[1] = test system: isolated ileum of the guinea-pig; assay: Antihistaminic: opposing histamine contraction of isolated ileum; settings: promethazine as standard
Protocol: The compounds of formula I, introduced in the conserving medium, are capable of opposing the contractural action of histamine on the isolated ileum of the guinea-pig. This activity is evaluated by taking promethazine as standard.

[2] = test system: oedema caused by the sub-plantar injection of carraghenin; assay: Antiinflammatory: reduction of sub-plantar oedema caused by carraghenin, rat; format: in vivo; settings: 100 mg/Kg/p.o.
Protocol: These properties are shown by a diminution of the local oedema caused by the sub-plantar injection of a phlogogenic agent, such as carraghenin, in the rat following the oral administration of compounds of formula (I).
The following Table VI lists, by way of example, the percentage reduction of the oedems caused by the sub-plantar injection of carraghenin, resulting from the administration of 100 mg/Kg/p.o. of different compounds of formula (I).

[3] = test system: gastric ulcers, provoked in a rat by tying of the pylorus (Shay ulcers); assay: Antiulcerous: reduction of Shay ulcers (tying of the pylorus); format: in vivo; settings: 50 mg/Kg/i.d.
Protocol: The compounds of formula (I) administered by intraduodenal means reduce the extent of gastric ulcers, provoked in a rat by tying of the pylorus (Shay ulcers).
By way of example, there is listed in the following Table IX, the results obtained by the administrations of 50 mg/Kg/i.d. of different compounds of formula (I).

[4] = Lethal doses / percentage mortality, oral; format: in vivo; settings: 2 000 mg/Kg/p.o.; 2000 mg/kg
Text: As a result of a comparison between the pharmacologically active doses mentioned above and the lethal doses listed in the following Table XII, the difference between said doses is sufficiently great to permit the utilisation of the compounds of formula (I) in therapeutics.

[5] = test system: rat suffering from high blood pressure; assay: Antihypertensive: return of systolic arterial pressure to normal in rats with high blood pressure; format: in vivo; settings: 200 mg/Kg/p.o.
Text: The compounds of formula (I), administered by oral means to a rat suffering from high blood pressure, are capable of lowering the systolic arteriel pressure.
By way of example, there is provided in the following Table IV the results obtained by administration of different compounds of formula (I).

[6] = test system: volume of urine emitted; assay: Diuretic: augmentation of urinary elimination; format: in vivo; settings: 25 mg/Kg/p.o., mouse, 6 hours
Protocol: The compounds of formula (I), administered by oral means to the mouse, simultaneously with a volume of 1 ml. of an isotonic solution of sodium chloride per 25 g of the corporeal weight of the mouse, are capable of provoking an augmentation of the volume of urine emitted by reference to control animals, the volume being measured for 6 hours following administration.
By way of example, the following Table XI lists the results obtained by the administration of 25 mg/Kg/p.o. of different compounds of formula (I).

[7] = test system: bronchoconstriction provoked in the guinea-pig by acetylcholine; assay: Antibronchoconstrictive and anticholinergic: bronchoconstriction by intravenous acetylcholine, Konzett method; format: in vivo; settings: 100 mg/kg/i.d.
Text: Injected by intraveinous or intraduodenal means, the compounds of formula (I) are capable of opposing the bronchoconstriction provoked in the guinea-pig by the itraveinous injection of acetylcholine by the Konzett method.
By way of example, the following Table VII lists the results obtained by the administration of different compounds of formula (I)

[8] = test system: excursions into the escape enclosure; assay: Central nervous system stimulation: excursions in the escape test; format: in vivo; settings: 100 mg/Kg/p.o., mouse
Protocol: The compounds of formula (I), administered by oral means to the mouse, provoke an augmentation of the number of excursions into the escape enclosure.
Thus, following the administration of 100 mg/Kg/p.o. of the compounds of Code Nos. 72 457 and 72 736, an augmentation of 30% in the number of excursions in the escape test, is observed.

Row | SMILES | antihistaminic activity relative to promethazine [1] | Percentage reduction of sub-plantar oedema [2] | Percentage reduction of Shay ulcers [3] | Percentage mortality [4] | Percentage of rats with high blood pressure whose systolic arteriel pressure is returned to normal [5] | Percentage augmentation of urinary elimination [6] | Percentage inhibition of bronchoconstriction [7] | augmentation in the number of excursions in the escape test [8]
1 | O=C(CCn1c(CN2CCCC2)nc2ccccc21)c1ccc(Cl)cc1 [72 366] | equivalent activity to that of promethazine | 60% | 40% | 0% |  |  |  | 
2 | Cc1ccc(C(=O)CCn2c(CN(C)C)nc3ccccc32)cc1 [72 457] |  |  | 30% | 0% | 50% | 45% | 80% | 30%
